According to patent US20250197799A1, “CELLS DERIVED FROM POLYPEDILUM VANDERPLANKI AND ODOR SENSOR EQUIPPED THEREWITH” (University of Maryland, College Park, priority 2022, published 2025):

Key:
Orco-Or47a [1] = molecular target: T1, Orco-Or47a (Drosophila melanogaster, UniProt P81921+Q9VNB5); test: Exogenous membrane protein function before drying and after drying-rehydration, Orco-Or47a stable expression cell line; assay type: cell-based; design: remnant residues; expressed in transfected cells; host or cells: Pv11 cells (Polypedilum vanderplanki), CRIS-PITCh knock-in at the Pv.00443 locus downstream of the 121 promoter, Zeocin selection and single-cell sorting; conditions: before drying
T1 sequence (Q9VNB5 1-486): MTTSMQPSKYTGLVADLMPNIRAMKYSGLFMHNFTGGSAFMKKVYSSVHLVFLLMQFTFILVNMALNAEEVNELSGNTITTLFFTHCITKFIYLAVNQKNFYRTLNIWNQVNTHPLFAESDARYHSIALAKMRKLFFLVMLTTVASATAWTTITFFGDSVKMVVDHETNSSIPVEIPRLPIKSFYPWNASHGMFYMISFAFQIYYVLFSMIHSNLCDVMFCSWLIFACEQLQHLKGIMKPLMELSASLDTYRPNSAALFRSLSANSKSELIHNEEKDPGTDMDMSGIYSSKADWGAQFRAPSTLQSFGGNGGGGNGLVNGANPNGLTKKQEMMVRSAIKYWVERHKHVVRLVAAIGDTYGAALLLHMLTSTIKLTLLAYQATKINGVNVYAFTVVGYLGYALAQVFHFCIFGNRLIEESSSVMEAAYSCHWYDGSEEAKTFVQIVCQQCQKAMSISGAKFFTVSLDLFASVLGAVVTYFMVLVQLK
T1 sequence (P81921 1-385): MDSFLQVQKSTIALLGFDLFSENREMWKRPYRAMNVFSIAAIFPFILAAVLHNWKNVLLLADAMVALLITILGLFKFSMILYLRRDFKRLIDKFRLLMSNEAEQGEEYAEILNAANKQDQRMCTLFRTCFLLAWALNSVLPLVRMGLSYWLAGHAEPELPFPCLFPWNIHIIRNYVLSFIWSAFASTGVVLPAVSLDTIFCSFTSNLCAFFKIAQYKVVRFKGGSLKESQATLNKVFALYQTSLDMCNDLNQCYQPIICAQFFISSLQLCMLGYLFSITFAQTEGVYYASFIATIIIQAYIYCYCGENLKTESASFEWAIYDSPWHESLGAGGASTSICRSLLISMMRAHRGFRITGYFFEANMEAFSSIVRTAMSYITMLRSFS
Procedure: To assess the drought tolerance of the cell lines, the cells were dried according to the following protocol. 4×10^7 Pv11-GCaMP6f stable expression cell lines were centrifuged at 700 g for 3 minutes and the supernatant removed. The precipitated cells were suspended in a 600 mM trehalose mix of 600 mM trehalose and IPL-41 medium at a ratio of 9:1, transferred to a 2 ml flask, and incubated at 25° C. for 48 hours. After 48 hours, the obtained cells were centrifuged at 700 g for 3 minutes and the supernatant was removed. The sedimented cells were suspended in 400 μl of 600 mM trebalose mix, and 40 μl were dropped onto a 35 mm dish. The 35 mm dish was dried for 10 days under conditions of 25° C. and humidity of 10% or less.
6. Assessment of exogenous membrane protein function after drying-rehydration. Using the Orco stable expression cell line and Orco-Or47a stable expression cell line, in order to assess the function of exogenous membrane proteins before drying and after 1 hour of rehydration after drying, fluorescence intensity generated in response to stimulation with VUAA1 (Orco agonist) or pentyl acetate (ligand of Or47a) was measured in the same manner as in 3.2 above.
The fluorescence intensity was digitized from the photograph, and ΔF/F was calculated according to the following formula:
Where the summation Σi=1^n is over the n cells in the image, Fi,after means the fluorescence intensity of the cell i after adding the ligand solution, and Fi,0 means the fluorescence intensity of the cell i before adding the ligand solution.
Specifically, a fluorescence image was taken under the condition in which the excitation wavelength/fluorescence wavelength was 488 nm/525 nm. In the fluorescence intensity quantification, the cells were identified in the photographed image, and the fluorescence intensity (F) was measured for each time. The initial values of fluorescence intensity (F0) were subtracted from the measured fluorescence intensity at each time to obtain the amount of change in fluorescence (ΔF), which was then normalized by dividing by the initial value of fluorescence intensity (F0) to obtain (Δ F/F0). A number of cells n were selected from the captured image, ΔF/F0 were produced for each, and the average value (including standard deviation, SD) of the results was graphed. For example, 25 cells were selected from the captured image, ΔF/F0 for each were produced, and the averaged results (including SD) were graphed. […] The Orco-Or47a stable expression cell line before drying responded to the Orco agonist (VUAA1) and the specific ligand of Or47a, pentyl acetate.

Pv11 cells = conditions: previous study; cited from earlier work
Orco-Or47a [2] = test: Response after rehydration with cycloheximide treatment, Orco-Or47a stable expression cell line; assay type: cell-based, Drosophila melanogaster
Procedure: 7. Confirmation that exogenous membrane protein responses in Orco-Or47a stable expression cell lines immediately after rehydration are not due to de novo protein synthesis. To confirm that the membrane protein response of the Orco-Or47a stable expression cell line immediately after rehydration was not due to de novo protein synthesis, cells were treated with cycloheximide (CHX, a protein synthesis inhibitor).
A previous study reported that 0.35 mM of cycloheximide is able to inhibit protein production in Pv11 cells. Therefore, also in this experiment, cycloheximide was dissolved in IPL-41 medium so that the cycloheximide concentration was 0.35 mM. An IPL-41 medium with 0.01 mM, 0.07 mM and 0.7 mM cycloheximide was also prepared. […] One hour after rehydration and 24 hours after rehydration, the same operation as in 3.6 above was performed, and the fluorescence intensity was measured and analyzed. […] FIG. 7A and FIG. 7B are graphs showing changes in fluorescence intensity of the Orco-Or47a stable expression cell line response to VUAA1 and pentyl acetate, respectively, one hour after drying and rehydration. FIGS. 7C and 7D are graphs showing changes in fluorescence intensity, respectively, in response to VUAA1 and pentyl acetate of Orco-Or47a stable expression cell lines 24 hours after drying and rehydration.

[3] = test system: GCaMP6f stable expression cell line; test: Functionality of GCaMP6f with ionomycin; assay type: cell-based, Polypedilum vanderplanki; conditions: ionomycin final concentration 1 μM, DMSO 1%; DMSO negative control showed no increase
Procedure: 3.2 The functionality of GCaMP6f. The functionality of GCaMP6f in the resulting cell lines was evaluated using Ionomycin (Ionomycin; Fujifilm Wako Pure Chemical) to increase the intracellular concentration of calcium ions to provide functional confirmation of exogenous proteins in the GCaMP6f stable-expressing cell line. Ionomycin was dissolved in dimethyl sulfoxide (DMSO; Fujifilm Wako Pure Chemical Industries, Ltd.), adjusted to a final DMSO concentration of 1% and an ionomycin final concentration of 1 μM in IP1-41 medium, and added to the cell solution. As a negative control, DMSO was adjusted to a final concentration of 1% in IP 1-41 medium and added to the cell solution. Bright-field images and fluorescence images (ex: 470/40 nm; em: 525/50 nm) of the cells before and after solution addition were taken (all-in-one fluorescence microscope BZ-X710, Keyence). […] Therefore, it was confirmed that the expressed GCaMP6f functioned in the obtained stable expression cell line. For statistical analysis of fluorescence intensity, one-way ANOVA was performed using Prism8 (GraphPad), followed by Tukey's multiple comparison test as a post-hoc test, […]

Q: For `CC(=O)c1ccccc1` [acetophenone], which “response as change in fluorescence intensity (ΔF/F0)” value (Orco-Or47a [1]) is on record?
A: did not react

Q: With `C[C@@H]1C[C@@H]([C@H](O)CC2CC(=O)NC(=O)C2)C(=O)[C@@H](C)C1` [cycloheximide] as the compound, how does the “concentration able to inhibit protein production” value (Pv11 cells) read?
A: 0.35 mM

Q: What about the “effect of cycloheximide on function of the exogenous membrane protein” value (Orco-Or47a [2]; 1 hour after rehydration, cycloheximide 0.01, 0.07, 0.35, 0.7 mM, response to VUAA1 or pentyl acetate) of the same compound?
A: no significant difference

Q: What about the “effect of CHX treatment on response” value (Orco-Or47a [2]; 24 hours after rehydration, response to VUAA1 and pentyl acetate) of the same compound?
A: less responsive

Q: For `C[C@H](CCC(=O)O)C[C@H](C)C[C@H](C)C(=O)/C=C(\O)[C@H](C)C[C@H](C)C/C=C/[C@@H](C)[C@@H](O)[C@@H](C)[C@@H](O)C[C@@H]1CC[C@@](C)([C@H]2CC[C@@](C)([C@@H](C)O)O2)O1` [ionomycin, Ionomycin], which fluorescence after addition [3] is on record?
A: stronger fluorescence than before the addition
